How the values were obtained:
[1] = test system: T-Rex 293 cell line SC3 cells having increased expression of androgen receptor protein due to exposure to doxycycline; assay: Cellular growth inhibition, T-Rex 293 SC3 cells with doxycycline-induced androgen receptor (CellTiter-Glo 2.0, 72 hours); format: cell-based; details: for GI50: T-Rex 293 SC3 cells with 10 ng/ml doxycycline (increased androgen receptor expression), 72 hours, CellTiter-Glo 2.0
[2] = test system: T-Rex 293 cell line SC3 cells lacking increased expression of androgen receptor protein; assay: Cellular growth inhibition, T-Rex 293 SC3 cells without doxycycline (CellTiter-Glo 2.0, 72 hours); format: cell-based; details: T-Rex 293 SC3 cells not exposed to doxycycline (no increased androgen receptor expression)
VCaP cells = assay: Cellular growth inhibition assay for VCaP cells (CellTiter-Glo 2.0, 72 hours); format: cell-based, human; details: for GI50: CellTiter-Glo 2.0

COc1cc(O[C@H]2CC[C@H](NC(=O)c3ccc(N4CCC5(CC4)CC(Cc4ccc(C6=N[C@@H](Cc7ncco7)c7nnc(C)n7-c7sc(C)c(C)c76)c(F)c4)C5)nn3)CC2)ccc1C#N [Compound I-125, N-[4-(4-cyano-3-methoxy-phenoxy)cyclohexyl]-6-[2-[[3-fluoro-4-[(9S)-4,5,13-trimethyl-9-(oxazol-2-ylmethyl)-3-thia-1,8,11,12-tetrazatricyclo[8.3.0.0^2,6]trideca-2 (6),4,7,10,12-pentaen-7-yl]phenyl]methyl]-7-azaspiro[3.5]nonan-7-yl]pyridazine-3-carboxamide]
GI50 [1]: < 500 nM | GI50 ([2]; 72 h): < 500 nM | GI50 (VCaP cells; Homo sapiens, VCaP, 72 h): < 500 nM

COc1cc(O[C@H]2CC[C@H](NC(=O)c3ccc(N4CCC5(CCN(c6ccc(C7=N[C@@H](C)c8nnc(C)n8-c8sc(C)c(C)c87)cc6OC)CC5)C4)nn3)CC2)ccc1C#N [Compound I-90]
GI50 [1]: < 500 nM | GI50 ([2]; 72 h): < 500 nM | GI50 (VCaP cells; Homo sapiens, VCaP, 72 h): < 500 nM

COc1cc(O[C@H]2CC[C@H](NC(=O)c3ccc(N4CCC5(CCN(c6ccc(C7=N[C@@H](C)c8nnc(C)n8-c8sc(C)c(C)c87)c(C)c6)CC5)C4)nn3)CC2)ccc1C#N [Compound I-72]
GI50 [1]: < 500 nM | GI50 ([2]; 72 h): < 500 nM | GI50 (VCaP cells; Homo sapiens, VCaP, 72 h): < 500 nM

COc1cc(O[C@H]2CC[C@H](NC(=O)c3ccc(N4CCC5(CCC(c6ccc(C7=N[C@@H](C)c8nnc(C)n8-c8sc(C)c(C)c87)cc6)C5)CC4)nn3)CC2)ccc1C#N (some centres unmarked) [Compound I-21]
GI50 [1]: < 500 nM | GI50 [2]: < 500 nM | GI50 (VCaP cells; 72 hours): 500 to 1500 nM

COc1cc(O[C@H]2CC[C@H](NC(=O)c3ccc(N4CC5(CC(C#Cc6ccc(C7=NC(Cc8ncco8)c8nnc(C)n8-c8sc(C)c(C)c87)cc6F)C5)C4)nn3)CC2)ccc1C#N (single isomer, unassigned) [Compound I-123]
GI50 [1]: < 500 nM | GI50 [2]: > 3000 nM | GI50 (VCaP cells; Homo sapiens, VCaP, 72 h): < 500 nM

COc1cc(O[C@H]2CC[C@H](NC(=O)c3ccc(N4CCC5(CCC(c6ccc(C7=N[C@@H](C)c8nnc(C)n8-c8sc(C)c(C)c87)cc6C(C)C)CC5)C4)nn3)CC2)ccc1C#N (some centres unmarked) [Compound I-122]
GI50 [1]: < 500 nM | GI50 [2]: 1500 to 3000 nM | GI50 (VCaP cells; 72 hours): 500 to 1500 nM

COc1cc(O[C@H]2CC[C@H](NC(=O)c3ccc(N4CCC5(CCC(c6ccc(C7=N[C@@H](C)c8nnc(C)n8-c8sc(C)c(C)c87)c(F)c6)CC5)C4)nn3)CC2)ccc1C#N (single isomer, unassigned) [Compound I-58]
GI50 [1]: < 500 nM | GI50 ([2]; 72 h): < 500 nM | GI50 (VCaP cells; Homo sapiens, VCaP, 72 h): < 500 nM

CC[C@@H]1N=C(c2ccc(C#CC3CC4(C3)CN(c3ccc(C(=O)N[C@H]5CC[C@H](Oc6ccc(C#N)c(OC)c6)CC5)nn3)C4)cc2)c2c(sc(C)c2C)-n2c(C)nnc21 [Compound I-31, N-[4-(4-cyano-3-methoxy-phenoxy)cyclohexyl]-6-[6-[2-[4-[(9S)-9-ethyl-4,5,13-trimethyl-3-thia-1,8,11,12-tetrazatricyclo[8.3.0.0^2,6]trideca-2 (6),4,7,10,12-pentaen-7-yl]phenyl]ethynyl]-2-azaspiro[3.3]heptan-2-yl]pyridazine-3-carboxamide]
GI50 [1]: < 500 nM | GI50 ([2]; 72 h): < 500 nM | GI50 (VCaP cells; Homo sapiens, VCaP, 72 h): < 500 nM

COc1cc(O[C@H]2CC[C@H](NC(=O)c3ccc(N4CCC5(CCN(c6ccc(C7=N[C@@H](C)c8nnc(C)n8-c8sc(C)c(C)c87)cc6C(C)C)CC5)C4)nn3)CC2)ccc1C#N [Compound I-105, N-[4-(4-cyano-3-methoxy-phenoxy)cyclohexyl]-6-[8-[2-isopropyl-4-[(9S)-4,5,9,13-tetramethyl-3-thia1,8,11,12-tetrazatricyclo[8.3.0.0^2,6]trideca-2 (6),4,7,10,12-pentaen-7-yl]phenyl]-2,8-diazaspiro[4.5]decan-2-yl]pyridazine-3-carboxamide]
GI50 [1]: < 500 nM | GI50 ([2]; 72 h): > 3000 nM | GI50 (VCaP cells; Homo sapiens, VCaP, 72 h): 500 to 1500 nM

CCc1csc2c1C(c1ccc(OC3CC4(CCN(c5ncc(C(=O)N[C@H]6C(C)(C)[C@H](Oc7ccc(C#N)c(OC)c7)C6(C)C)cn5)CC4)C3)cc1)=N[C@@H](Cc1ncco1)c1nnc(C)n1-2 [III-1, N-[(1r,3r)-3-(4-cyano-3-methoxy-phenoxy)-2,2,4,4-tetramethyl-cyclobutyl]-2-[2-[4-[(9S)-5-ethyl-13-methyl-9-(oxazol-2-ylmethyl)-3-thia-1,8,11,12-tetrazatricyclo[8.3.0.0^2,6]trideca-2 (6),4,7,10,12-pentaen-7-yl]phenoxy]-7-azaspiro[3.5]nonan-7-yl]pyrimidine-5-carboxamide]
GI50 [1]: < 500 nM | GI50 ([2]; 72 h): 500 to 1500 nM | GI50 (VCaP cells; Homo sapiens, VCaP, 72 h): < 500 nM

COc1cc(O[C@H]2CC[C@H](NC(=O)c3ccc(N4C[C@H]5CN(c6ccc(C7=N[C@@H](Cc8ncco8)c8nnc(C)n8-c8sc(C)c(C)c87)cc6)C[C@H]5C4)nn3)CC2)ccc1C#N [Compound I-106, 6-[(3aR,6aS)-2-[4-[(9S)-4,5,13-trimethyl-9-(oxazol-2-ylmethyl)-3-thia-1,8,11,12-tetrazatricyclo[8.3.0.0^2,6]trideca-2 (6),4,7,10,12-pentaen-7-yl]phenyl]-1,3,3a,4,6,6a-hexahydropyrrolo[3,4-c]pyrrol-5-yl]-N-[4-(4-cyano-3-methoxy-phenoxy)cyclohexyl]pyridazine-3-carboxamide]
GI50 [1]: < 500 nM | GI50 ([2]; 72 h): < 500 nM | GI50 (VCaP cells; Homo sapiens, VCaP, 72 h): < 500 nM

COc1cc(O[C@H]2CC[C@H](NC(=O)c3ccc(N4CCC5(CCN(c6ccc(C7=NC(Cc8ncco8)c8nnc(C)n8-c8sc(C)c(C)c87)cc6F)CC5)C4)nn3)CC2)ccc1C#N (single isomer, unassigned) [Compound I-134]
GI50 [1]: < 500 nM | GI50 [2]: > 3000 nM | GI50 (VCaP cells; 72 hours): > 3000 nM

COCC[C@@H]1N=C(c2ccc(C#CC3CC4(C3)CN(c3ccc(C(=O)N[C@H]5CC[C@H](Oc6ccc(C#N)c(OC(F)(F)F)c6)CC5)nn3)C4)cc2)c2c(sc(C)c2C)-n2c(C)nnc21 [Compound I-33]
GI50 [1]: < 500 nM | GI50 [2]: < 500 nM | GI50 (VCaP cells; 72 hours): < 500 nM

COc1cc(O[C@H]2CC[C@H](NC(=O)c3cnc(N4CCC5(CCN(c6ccc(C7=N[C@@H](C)c8nnc(C)n8-c8sc(C)c(C)c87)cc6)CC5)C4)cn3)CC2)ccc1C#N [Compound I-39, N-((1r,4r)-4-(4-cyano-3-methoxyphenoxy)cyclohexyl)-5-(8-(4-((S)-2,3,6,9-tetramethyl-6H-thieno[3,2-f][1,2,4]triazolo[4,3-a][1,4]diazepin-4-yl)phenyl)-2,8-diazaspiro[4.5]decan-2-yl) pyrazine-2-carboxamide]
GI50 [1]: < 500 nM | GI50 ([2]; 72 h): < 500 nM | GI50 (VCaP cells; Homo sapiens, VCaP, 72 h): < 500 nM

COc1cc(O[C@H]2CC[C@H](NC(=O)c3ccc(N4CCC5(CC4)CC(Oc4ccc(C6=N[C@@H](Cc7ncco7)c7nnc(C)n7-c7sc(C)c(C)c76)cc4F)C5)nn3)CC2)ccc1C#N [Compound I-133]
GI50 [1]: < 500 nM | GI50 ([2]; 72 h): < 500 nM | GI50 (VCaP cells; Homo sapiens, VCaP, 72 h): < 500 nM

COc1cc(O[C@H]2CC[C@H](NC(=O)c3ccc(N4CC(F)(F)C5(CCN(c6ccc(C7=N[C@@H](C)c8nnc(C)n8-c8sc(C)c(C)c87)cc6)CC5)C4)nn3)CC2)ccc1C#N [Compound I-107, N-[4-(4-cyano-3-methoxy-phenoxy)cyclohexyl]-6-[4,4-difluoro-8-[4-[(9S)-4,5,9,13-tetramethyl-3-thia-1,8,11,12-tetrazatricyclo[8.3.0.0^2,6]trideca-2 (6),4,7,10,12-pentaen-7-yl]phenyl]-2,8-diazaspiro[4.5]decan-2-yl]pyridazine-3-carboxamide]
GI50 [1]: < 500 nM | GI50 ([2]; 72 h): < 500 nM | GI50 (VCaP cells; Homo sapiens, VCaP, 72 h): < 500 nM

COc1cc(O[C@H]2C(C)(C)[C@H](NC(=O)c3cnc(N4CCC5(CC4)CC(Oc4ccc(C6=N[C@H](Cc7ncco7)c7nnc(C)n7-c7sc(C)c(C)c76)cc4)C5)nc3)C2(C)C)ccc1C#N [II-14]
GI50 [1]: < 500 nM | GI50 ([2]; 72 h): > 3000 nM | GI50 (VCaP cells; Homo sapiens, VCaP, 72 h): > 3000 nM

COc1cc(O[C@H]2CC[C@H](NC(=O)c3ccc(N4CC5(CC(C#Cc6ccc(C7=N[C@@H](Cc8ncco8)c8nnc(C)n8-c8sc(C)c(C)c87)cc6)C5)C4)nn3)CC2)ccc1C#N [Compound I-124, N-[(1r,4r)-4-(4-cyano-3-methoxy-phenoxy)cyclohexyl]-6-[6-[2-[4-[(9S)-4,5,13-trimethyl-9-(oxazol-2-ylmethyl)-3-thia-1,8,11,12-tetrazatricyclo[8.3.0.0^2,6]trideca-2 (6),4,7,10,12-pentaen-7-yl]phenyl]ethynyl]-2-azaspiro[3.3]heptan-2-yl]pyridazine-3-carboxamide]
Ratio of GI50's ([1]; GI50 of the top compound in the pair divided by GI50 of the lower compound, T-Rex 293 SC3 cells with doxycycline-induced androgen receptor): 1 | GI50 [1]: < 500 nM | GI50 ([2]; 72 h): < 500 nM | Ratio of GI50's (VCaP cells; GI50 of the top compound in the pair divided by GI50 of the lower compound): 1 | GI50 (VCaP cells; Homo sapiens, VCaP, 72 h): < 500 nM

COCC[C@@H]1N=C(c2ccc(C#CC3CC4(C3)CN(c3ccc(C(=O)N[C@H]5CC[C@H](Oc6ccc(C#N)c(OC(F)(F)F)c6)CC5)nn3)C4)cc2)c2c(sc(C)c2C)-n2c(C)nnc21 [Compound I-9, N-[4-[4-cyano-3-(trifluoromethoxy)phenoxy]cyclohexyl]-6-[6-[2-[4-[(9S)-9-(2-methoxyethyl)-4,5,13-trimethyl-3-thia-1,8,11,12-tetrazatricyclo[8.3.0.0^2,6]trideca-2 (6),4,7,10,12-pentaen-7-yl]phenyl]ethynyl]-2-azaspiro[3.3]heptan-2-yl]pyridazine-3-carboxamide]
GI50 [1]: < 500 nM | GI50 ([2]; 72 h): < 500 nM | GI50 (VCaP cells; Homo sapiens, VCaP, 72 h): < 500 nM

COCC[C@@H]1N=C(c2ccc(C#CC3CC4(C3)CN(c3ccc(C(=O)NC5CCC(Oc6ccc(C#N)c(OC)c6)CC5)nn3)C4)cc2)c2c(sc(C)c2C)-n2c(C)nnc21 (stereo partly drawn) [Compound I-30, N-[4-(4-cyano-3-methoxy-phenoxy)cyclohexyl]-6-[6-[2-[4-[(9S)-9-(2-methoxyethyl)-4,5,13-trimethyl-3-thia-1,8,11,12-tetrazatricyclo[8.3.0.0^2,6]trideca-2 (6),4,7,10,12-pentaen-7-yl]phenyl]ethynyl]-2-azaspiro[3.3]heptan-2-yl]pyridazine-3-carboxamide]
GI50 [1]: < 500 nM | GI50 [2]: < 500 nM | GI50 (VCaP cells; 72 hours): < 500 nM

From US12668599B2, “Heterobifunctional compounds and methods of treating disease” (Halda Therapeutics OpCo, Inc., priority 2023, dated 2026)
